Reference: PMC7281206, “Cysteine Cathepsins Inhibition Affects Their Expression and Human Renal Cancer Cell Phenotype” (Cancers, 2020)
*: point of attachment. CH2F = FC*

How the values were obtained:
SNAIL1 in 769-P cells = assay: SNAIL1 protein expression (western blot), 769-P; format: cell-based, human; details: 72 h
Method: These properties could be the result of the modulation of the effectors controlling EMT, as previously shown in other tumor models. To test this hypothesis, the cells were treated with the inhibitors for 24, 48, and 72 h by changing the media every day, and they were tested for E-cadherin and SNAIL1 expression (Figure 6; detail information of western blots can be seen in Supplementary Figure S7). Figure 6 Effects of the peptides on E-cadherin and SNAIL1 protein expression: (a,b) protein expression of E-cadherin and SNAIL1 in 769-P and (c,d) A498 cells after 24, 48, and 72 h of treatment with the peptides. Data are represented as mean ± SD of at least three replicates. Significance was calculated through one-way ANOVA, followed by Dunnet’s test. Cells were seeded in RPMI containing 10% FBS and cultured for 24 h. Next, 30 µM of inhibitors were added to the culture medium and incubated for 24, 48, and 72 h. Control cells were treated with 0.01% DMSO. At all time points the samples were lysed in 50 mM Tri-HCl (pH 8.0), 100 mM NaCl, 0.5% NP-40, 1% Triton X-100, 1× protease inhibitor cocktail (ThermoFisher, Waltham, MA, USA). The 50 µg of protein lysates were separated by electrophoresis on a 12% SDS-PAGE gel and transferred to the PFDF membranes. […] After an additional wash (three times with PBS), reactive bands were detected by chemiluminescence (Bio-Rad, Irvine, CA, USA). […]

[1] = tested on: 769-P cells (endolysosomal compartment); assay: LysoTracker red fluorescence, 769-P; format: cell-based, human; details: 20 μM; 48 h; 75 nM LysoTracker red, 1 h, Ex/Em 570/600
Method: First, 1.5 × 10^4 769-P or A498 cells were seeded in 96-well plates in full medium. The day after the cells were treated with the peptides for 3 consecutive days to establish 24, 48, and 72 h groups of treatment. LysoTracker Red fluorescence intensity was measured via microplate reader following the protocols described in [75] and applying Ex/Em = 570/600. The cells were incubated with 75 nM of LysoTracker red for 1 h. […]
Figure S6. The effect of the peptide inhibitors on human 769‐P and A498 renal cancer cell on
lysosomes integrity. (a) 769‐P and (b) A498 cells were treated with increasing doses of Ac‐PLVE‐FMK
(red bars) and Ac‐VLPE‐FMK (blue bars) (2.5–250 μM). NR uptake was measured after 24, 48, and 72
h via MTT assay. (c) LysoTracker red evaluation in 769‐P and (d) A498 cells after 24, 48, and 72 h with
the inhibitors (20 μM). Data represent the mean (± S.D.) of at least three independent experiments,
each performed in triplicate. […]

human recombinant CtsL = assay: Fluorescent protease activity assay, recombinant CtsL; format: biochemical; details: 20 nM CtsL, 50 μM Ac-PLVQ-AMC, inhibitor 2 μM; 0.1 M sodium acetic buffer pH 4.6, 12 min, Ex/Em 353/442 nm
Method: Ac-PLVE-FMK and Ac-VLPE-FMK inhibitory properties were evaluated against human recombinant CtsL and B. These recombinant enzymes were expressed in E. coli via plasmid transformation and further purification, using nickel-nitrilotriacetic acid (Ni-NTA) sepharose. Gel zymography assay was used to provide a preliminary evaluation of the ability of these recombinant proteins to degrade the gelatin substrate previously embedded in the gel (Supplementary Figure S1). Following Coomassie staining, the Cts were detectable as single bands. As expected, a translucent area was evident, due to the substrate digestion in the proximity of the proteins. Then, the recombinant proteins were tested for their ability to digest the Triticain-α substrate Ac-PLVQ via fluorescent protease activity assay, previously optimized by our group. This probe was conjugated with the fluorogenic chromophore 7-amino-4-methylcoumarin (Ac-PLVQ-AMC). After proteolytic cleavage, it emits a detectable fluorescent signal.
Total RNA extract from retinoblastoma […] cells was used to obtain cDNA. A pair of oligonucleotides ([…] and […]) was used for the amplification of DNA fragment containing CtsB, the product of which was ligated into pET15b (Merck Millipore, Billerica, MA, USA) using NdeI and XhoI. DNA fragment containing CtsL was amplified using a pair of oligonucleotides ([…] and […]) and ligated into pET28a (+) (Merck Millipore, Billerica, MA, USA) using NheI and HindIII. […]
The activity of recombinant CtsL and B was detected by the hydrolysis of the fluorogenic substrate Ac-Pro-Leu-Val-Gln- 7-amino-4-methylcoumarin (AMC) (Pepmic Suzhou Jiangsu, China). […] The substrate was added to a final concentration of 50 μM, and its hydrolysis was continuously measured for 12 min using a CLARIOstar® Plus plate reader (BMG Labtech Ortenberg Baden-Württemberg, Germany) at excitation and emission wavelengths of 353 and 442 nm, respectively.

## Ac-VLPE-CH2F [Ac-VLPE-FMK]
SNAIL1 in 769-P cells
  SNAIL1 protein expression: dropped to values more similar to the control
[1]
  LysoTracker red fluorescence: slightly increasing
Human recombinant CtsL
  Inhibition of Ac-PLVQ-AMC cleavage (fluorescent signal): the intensity of the fluorescent signal was significantly affected

## Ac-PLVE-CH2F [Ac-PLVE-FMK]
SNAIL1 in 769-P cells
  SNAIL1 protein expression: increased significantly at 72 h only in the case of 769P cells treated with AC-PLVE-FMK
[1]
  LysoTracker red fluorescence: slightly increasing
Human recombinant CtsL
  Inhibition of Ac-PLVQ-AMC cleavage (fluorescent signal): the intensity of the fluorescent signal was significantly affected
